From paper PMC5507927, “Lybatides from Lycium barbarum Contain An Unusual Cystine-stapled Helical Peptide Scaffold” (Scientific Reports, 2017)
Positions of bridges follow the written chain, without caps; N, C: chain ends. Residues, ends and D or L forms follow the SMILES beside them.

What was measured:
[1] = tested on: trypsin; experiment: Enzymatic stability with trypsin (RP-HPLC profile against control); assay type: in vitro ADME; conditions: trypsin (1 μL of 0.5 μg/μL), 37 °C, 10 μg peptide in 100 μL 100 mM ammonium bicarbonate buffer pH 7.8, RP-HPLC profile compared with control without trypsin, read-out: peptide not degraded when incubated with trypsin
Method: CRPs with a well-defined disulfide core are known for their compact structure and high resistance to heat and enzymatic degradation. This stability is an important characteristic for CRPs as putative bioactive peptides in order for them to survive decoction processes in traditional herbal preparations and to retain both bioavailability and pharmacological effects by oral administration. […] A total of 96% of lyba1 remained after heating in boiling water at 100 °C for 2 h. Similarly, 99% of the peptide remained intact after incubation in 2 M HCl for 3 h, and 99% of the peptide was not degraded when incubated with trypsin for 3 h (Fig. 5).
Figure 5 Stability assays of lybatide, lyba1. (A) Thermal stability of lyba1 incubated at 100 °C for 2 h. (B) Acidic condition stability of lyba1 incubated in 2.0 M HCl […] for […]. […] (D) Stability of lyba1 incubated in human serum for 60 min at 37 °C, DALK was used as a control. The molecular weight of the peak was determined by MALDI-MS. TEXT PRINTED IN THE PICTURE: (A) lyba1: Cald.: 3509; Found: 3509 | (B) lyba1: Cald.: 3509; Found: 3509 | (C) lyba1: Cald.: 3509; Found: 3509 DOUBTS OF THE COPYIST ABOUT THIS PICTURE: lyba1, panels A-C: 'Cald.' and 'Found' are printed with no measure or unit. I took them as molecular weight, but they may be only mass-spectrometric peak identification. […]

[2] = tested on: adenocarcinomic human alveolar basal epithelial cells (A549, ATCC CCL-185); experiment: MTT cell toxicity assay; assay type: cell-based; conditions: overnight incubation, tested up to 100 μM (method section: 0.01-10 μM)
Method: (§1) Many CRPs including defensins, thionins and hevein-like peptides display antimicrobial or cytotoxic activity.
(§2) Lybatide lyba1 was tested for its cytotoxicity effect against human umbilical vein endothelial cells (HUVEC-CS, ATCC CRL-2873), monkey kidney epithelial cells (Vero, ATCC CCL-81) and adenocarcinomic human alveolar basal epithelial cells (A549, ATCC CCL-185). Briefly, 1 × 10^4 cells per well in 100 μL were seeded into a 96-well plate (TPP, Switzerland) and incubated overnight. The supernatant was removed, and the cells were washed twice with phosphate buffered saline (PBS; Gibco, USA). The cells were then treated with lyba1 at concentrations 0.01 μM, 0.1 μM, 1 μM, and 10 μM and incubated overnight, with 10% DMSO used as positive control.
(§3) After incubation, MTT was added to the wells and the plate was incubated for 1.5 h at 36.7 °C. Next, 200 μL of 100% DMSO was added, incubated for 2 h, and the absorbance was determined with a microplate reader at 550 nm wavelength.

[3] = tested on: human umbilical vein endothelial cells (HUVEC-CS, ATCC CRL-2873); experiment: MTT cell toxicity assay; assay type: cell-based; conditions: overnight incubation, tested up to 100 μM (method section: 0.01-10 μM)
Method: as §1, §2, §3

[4] = tested on: monkey kidney epithelial cells (Vero, ATCC CCL-81); experiment: MTT cell toxicity assay; assay type: cell-based; conditions: overnight incubation, tested up to 100 μM (method section: 0.01-10 μM)
Method: as §1, §2, §3

CC[C@H](C)[C@@H]1NC(=O)[C@@H]2CSSC[C@H](NC(=O)[C@H](CO)NC(=O)[C@@H](N)CC(=O)O)C(=O)N[C@@H](CO)C(=O)N[C@@H](CCC(=O)O)C(=O)N[C@@H](Cc3ccc(O)cc3)C(=O)N[C@H]3CSSC[C@@H](C(=O)N4CCC[C@H]4C(=O)N[C@@H](CO)C(=O)O)NC(=O)[C@H](CSSC[C@H](NC(=O)[C@H](CO)NC(=O)[C@H](CC(N)=O)NC(=O)[C@H](CC(N)=O)NC(=O)[C@H](CO)NC3=O)C(=O)N3CCC[C@H]3C(=O)N[C@@H](Cc3ccc(O)cc3)C(=O)N[C@H]3CSSC[C@H](NC(=O)[C@H](CC(C)C)NC(=O)[C@H]([C@@H](C)O)NC(=O)[C@H](Cc4ccc(O)cc4)NC(=O)[C@H](CC(C)C)NC(=O)[C@H](CCCCN)NC(=O)[C@H](CCC(N)=O)NC(=O)CNC(=O)[C@H](CC(=O)O)NC3=O)C(=O)N2)NC(=O)[C@H]([C@@H](C)O)NC(=O)[C@H](CC(N)=O)NC1=O [lyba1] (H-DSCSEYCSNNSCPYCDGQKLYTLCCINTCCPS-OH; disulfide 3-25, 7-30, 12-29, 15-24)
remaining at 3 h, 100 µg/mL [1]: 99%
cytotoxic effect [2]: did not display any cytotoxic effect
cytotoxic effect [3]: did not display any cytotoxic effect
cytotoxic effect [4]: did not display any cytotoxic effect
